From ChEMBL document CHEMBL4627258, “Photo effect on the CD1d-binding ability of azobenzene-attached analogues of α-GalCer” (Bioorg Med Chem Lett, 2020) come the findings set out here.

The structures appear in SMILES notation.

Format in all cases: protein assay
Experiment [1] concerns the target T1, Antigen-presenting glycoprotein CD1d (Mus musculus) (UniProt P11609+P11610). In words: Binding affinity to WTB6 mouse thymus CD1d assessed as restriction ratio for reduction in iNKT/CD1d interaction by FACS analysis relative to control. In general terms: In flow cytometry, cells or beads pass a laser one at a time.
Experiment [2] addresses T1, Antigen-presenting glycoprotein CD1d (Mus musculus). In words: Binding affinity to WTB6 mouse spleen CD1d assessed as restriction ratio for reduction in iNKT/CD1d interaction by FACS analysis relative to control.
Experiment [3] shares this target. In words: Binding affinity to CD1d in Traj18 knock out C57BL/6 mouse assessed as restriction ratio for reduction in iNKT/CD1d interaction by FACS analysis relative to control.

`CCCCCCCCCCCCCC[C@@H](O)[C@@H](O)[C@H](CO[C@H]1O[C@H](CO)[C@H](O)[C@H](O)[C@H]1O)NC(=O)CCCCCCOc1ccc(/N=N/c2ccccc2)cc1`: the Ratio in experiment [1] is 0.35%; in experiment [2], 0.31%; in experiment [3], less than 0.02%.
For `CCCCCCCCCCCCCCCCCCCCCCCCCC(=O)N[C@@H](CO[C@H]1O[C@H](CO)[C@H](O)[C@H](O)[C@H]1O)[C@H](O)[C@H](O)CCCCCCCCCCCCCC`, in that order: 0.45%, 0.66% and less than 0.02%.
The like results for `CCCCCCCCCCCCCC[C@@H](O)[C@@H](O)[C@H](CO[C@H]1O[C@H](CO)[C@H](O)[C@H](O)[C@H]1O)NC(=O)CCCCCCOc1ccc(/N=N\c2ccccc2)cc1` were, in that order, 0.4%, 0.42% and less than 0.02%.
The like results for `CCCCCCCCCCCCCC[C@@H](O)[C@@H](O)[C@H](CO[C@H]1O[C@H](CO)[C@H](O)[C@H](O)[C@H]1O)NC(=O)CCCCOc1ccc(/N=N\c2ccccc2)cc1` were, in that order, 0.05%, 0.05% and 0.57%.
For the compound `CCCCCCCCCCCCCC[C@@H](O)[C@@H](O)[C@H](CO[C@H]1O[C@H](CO)[C@H](O)[C@H](O)[C@H]1O)NC(=O)CCCCOc1ccc(/N=N/c2ccccc2)cc1`, the Ratio was determined as 0.09% in experiment [1], 0.06% in experiment [2] and 0.28% in experiment [3].
For the compound `CCCCCCCCCCCCCC[C@@H](O)[C@@H](O)[C@H](CO[C@H]1O[C@H](CO)[C@H](O)[C@H](O)[C@H]1O)NC(=O)CCCCCCCCCCOc1ccc(/N=N/c2ccccc2)cc1`, the Ratio in experiment [1] is 0.36%; in experiment [2], 0.5%; in experiment [3] it was less than 0.02%.
For `CCCCCCCCCCCCCC[C@@H](O)[C@@H](O)[C@H](CO[C@H]1O[C@H](CO)[C@H](O)[C@H](O)[C@H]1O)NC(=O)CCCCCCCCOc1ccc(/N=N\c2ccccc2)cc1`, in that order: 0.37%, 0.48% and less than 0.02%.
With `CCCCCCCCCCCCCC[C@@H](O)[C@@H](O)[C@H](CO[C@H]1O[C@H](CO)[C@H](O)[C@H](O)[C@H]1O)NC(=O)CCCCCCCCOc1ccc(/N=N/c2ccccc2)cc1`, the Ratio in experiment [1] is 0.28%; in experiment [2] it was 0.4%; in experiment [3], less than 0.02%.
For `CCCCCCCCCCCCCC[C@@H](O)[C@@H](O)[C@H](CO[C@H]1O[C@H](CO)[C@H](O)[C@H](O)[C@H]1O)NC(=O)CCCCCCCCCCOc1ccc(/N=N\c2ccccc2)cc1`, in that order: 0.44%, 0.57% and less than 0.02%.
